Our source for the Ki values is patent US10392391B2 (Vertex Pharmaceuticals Incorporated, priority 2012, dated 2019).

Where two headings read alike, the source gives them in different places.

This test addresses ATR kinase (full-length ATR) (Homo sapiens (Human), UniProt Q13535). The experiment in a line: ATR inhibition assay (radioactive-phosphate incorporation). Type of test: biochemical. In short, it runs like this: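 Radiometric 33P incorporation by 5 nM full-length ATR into 800 μM target peptide with 10 μM [γ-33P]ATP, in 50 mM Tris/HCl pH 7.5, 10 mM MgCl2, 1 mM DTT, 7% DMSO, 25° C. Compound pre-incubated 10 minutes; reaction stopped after 24 hours, captured on phosphocellulose. Ki(app) from non-linear regression of initial rates.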

Where [1] appears, read: Ki(app), 5 nM full-length ATR, 10 μM ATP, 25° C.

Chain of ATR kinase (full-length ATR) (Q13535 whole entry): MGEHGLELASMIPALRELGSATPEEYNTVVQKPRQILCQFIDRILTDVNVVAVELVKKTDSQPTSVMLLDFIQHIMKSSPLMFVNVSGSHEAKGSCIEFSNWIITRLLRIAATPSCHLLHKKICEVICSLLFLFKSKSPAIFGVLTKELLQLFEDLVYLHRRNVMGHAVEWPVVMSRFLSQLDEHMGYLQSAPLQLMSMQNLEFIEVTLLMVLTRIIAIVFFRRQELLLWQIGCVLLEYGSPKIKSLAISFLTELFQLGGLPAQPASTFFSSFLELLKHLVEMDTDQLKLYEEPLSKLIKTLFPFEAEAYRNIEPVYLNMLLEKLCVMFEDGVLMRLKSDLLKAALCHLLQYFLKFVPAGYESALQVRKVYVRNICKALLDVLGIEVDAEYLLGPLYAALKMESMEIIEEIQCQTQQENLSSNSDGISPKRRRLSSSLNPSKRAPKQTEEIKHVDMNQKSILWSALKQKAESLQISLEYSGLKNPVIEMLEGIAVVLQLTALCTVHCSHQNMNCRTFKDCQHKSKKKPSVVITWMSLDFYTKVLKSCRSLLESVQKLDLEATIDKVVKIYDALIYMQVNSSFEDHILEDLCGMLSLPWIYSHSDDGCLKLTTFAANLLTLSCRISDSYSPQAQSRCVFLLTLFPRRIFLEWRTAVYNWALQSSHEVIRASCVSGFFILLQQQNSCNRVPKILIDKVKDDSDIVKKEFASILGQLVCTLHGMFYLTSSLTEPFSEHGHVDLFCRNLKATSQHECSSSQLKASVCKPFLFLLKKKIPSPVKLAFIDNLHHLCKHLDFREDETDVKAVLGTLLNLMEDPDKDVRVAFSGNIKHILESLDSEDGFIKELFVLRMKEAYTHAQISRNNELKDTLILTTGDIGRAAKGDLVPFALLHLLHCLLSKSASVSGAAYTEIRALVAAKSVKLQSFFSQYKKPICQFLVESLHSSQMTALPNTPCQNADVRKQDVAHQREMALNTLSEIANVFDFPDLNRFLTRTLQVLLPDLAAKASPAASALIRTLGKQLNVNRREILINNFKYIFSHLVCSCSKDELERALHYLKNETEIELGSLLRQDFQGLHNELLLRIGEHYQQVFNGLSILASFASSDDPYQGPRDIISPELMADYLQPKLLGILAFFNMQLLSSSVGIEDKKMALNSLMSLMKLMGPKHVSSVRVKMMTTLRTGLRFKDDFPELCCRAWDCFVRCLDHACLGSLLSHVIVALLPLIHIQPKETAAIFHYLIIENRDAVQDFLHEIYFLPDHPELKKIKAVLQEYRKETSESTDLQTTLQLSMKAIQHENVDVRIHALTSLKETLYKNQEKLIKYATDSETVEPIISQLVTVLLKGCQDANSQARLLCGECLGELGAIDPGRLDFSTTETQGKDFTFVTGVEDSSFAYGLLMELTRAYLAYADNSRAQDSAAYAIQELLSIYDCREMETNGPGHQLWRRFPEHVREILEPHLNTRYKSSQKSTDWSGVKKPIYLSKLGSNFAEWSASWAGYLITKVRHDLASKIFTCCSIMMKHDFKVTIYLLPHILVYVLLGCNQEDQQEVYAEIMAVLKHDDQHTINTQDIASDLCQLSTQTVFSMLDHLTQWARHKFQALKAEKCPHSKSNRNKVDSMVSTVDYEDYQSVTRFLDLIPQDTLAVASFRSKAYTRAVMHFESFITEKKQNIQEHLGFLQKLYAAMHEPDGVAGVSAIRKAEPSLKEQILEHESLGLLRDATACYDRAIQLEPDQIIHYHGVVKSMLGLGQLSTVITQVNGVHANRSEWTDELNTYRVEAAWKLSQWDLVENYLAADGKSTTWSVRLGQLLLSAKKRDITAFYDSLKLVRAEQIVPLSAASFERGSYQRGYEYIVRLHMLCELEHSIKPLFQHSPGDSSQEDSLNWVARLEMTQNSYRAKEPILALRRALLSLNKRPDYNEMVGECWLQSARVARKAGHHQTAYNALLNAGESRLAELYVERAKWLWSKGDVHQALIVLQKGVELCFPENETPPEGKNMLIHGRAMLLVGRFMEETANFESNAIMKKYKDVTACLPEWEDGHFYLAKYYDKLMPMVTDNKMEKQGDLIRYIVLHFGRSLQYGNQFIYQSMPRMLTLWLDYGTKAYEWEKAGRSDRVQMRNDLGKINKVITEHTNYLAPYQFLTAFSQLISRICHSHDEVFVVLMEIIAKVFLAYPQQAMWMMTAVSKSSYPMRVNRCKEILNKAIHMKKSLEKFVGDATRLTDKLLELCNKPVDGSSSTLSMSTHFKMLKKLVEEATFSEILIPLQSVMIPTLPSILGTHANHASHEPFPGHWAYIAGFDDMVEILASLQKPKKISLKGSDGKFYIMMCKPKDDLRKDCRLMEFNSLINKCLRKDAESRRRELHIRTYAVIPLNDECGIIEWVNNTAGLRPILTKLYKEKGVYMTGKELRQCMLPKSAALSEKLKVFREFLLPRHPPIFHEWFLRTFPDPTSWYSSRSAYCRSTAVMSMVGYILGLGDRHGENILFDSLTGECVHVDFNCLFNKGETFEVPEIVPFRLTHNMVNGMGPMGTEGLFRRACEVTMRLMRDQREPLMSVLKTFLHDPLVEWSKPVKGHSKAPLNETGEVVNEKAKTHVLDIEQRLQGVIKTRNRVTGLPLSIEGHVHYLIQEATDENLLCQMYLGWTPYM

In the case of `Nc1nn2cc(F)cnc2c1C(=O)Nc1cncc(F)c1N1CCN(C(=O)C23CCN(CC2)CC3)CC1` [I-N-134, 2-amino-6-fluoro-N-(5-fluoro-4-(4-(quinuclidine-4-carbonyl)piperazin-1-yl)pyridin-3-yl)pyrazolo[1,5-a]pyrimidine-3-carboxamide], the Ki under setting [1] lay within 10 to 1000 nM.

For `Nc1nn2cc(F)cnc2c1C(=O)Nc1cnccc1O[C@@H]1CN2CCC1CC2` [I-O-10, (S)-2-amino-6-fluoro-N-(4-(quinuclidin-3-yloxy)pyridin-3-yl)pyrazolo[1,5-a]pyrimidine-3-carboxamide], the Ki under setting [1] fell in the range of 10 to 1000 nM.

Regarding `CN1CCN(C(=O)C2CCN(c3c(Cl)cncc3NC(=O)c3c(N)nn4cc(F)cnc34)CC2)CC1` [I-G-3, 2-amino-N-(5-chloro-4-(4-(4-methylpiperazine-1-carbonyl)piperidin-1-yl)pyridin-3-yl)-6-fluoropyrazolo[1,5-a]pyrimidine-3-carboxamide], under setting [1], the Ki was 10 to 1000 nM.

As for `N#CCc1cnc2c(C(=O)Nc3cnccc3N3CCOCC3)c(N)nn2c1` [I-N-81, 2-amino-6-(cyanomethyl)-N-(4-morpholinopyridin-3-yl)pyrazolo[1,5-a]pyrimidine-3-carboxamide], under setting [1], the Ki fell in the range of 10 to 1000 nM.

In the case of `Nc1nn2cc(F)cnc2c1C(=O)Nc1cnccc1C1CCN(C(=O)C23CCN(CC2)CC3)CC1` [I-C-18, 2-amino-6-fluoro-N-(4-(1-(quinuclidine-4-carbonyl)piperidin-4-yl)pyridin-3-yl)pyrazolo[1,5-a]pyrimidine-3-carboxamide], under setting [1], the Ki is 10 to 1000 nM.

With `Cc1nonc1N1CCN(c2ccncc2NC(=O)c2c(N)nn3cc(F)cnc23)CC1` [I-N-260, 2-amino-6-fluoro-N-(4-(4-(4-methyl-1,2,5-oxadiazol-3-yl)piperazin-1-yl)pyridin-3-yl)pyrazolo[1,5-a]pyrimidine-3-carboxamide], the Ki under setting [1] was in the range of 10 to 1000 nM.

On to `CC(C)(C)Oc1ccncc1NC(=O)c1c(N)nn2cc(F)cnc12` [I-O-88, 2-amino-N-(4-(tert-butoxy)pyridin-3-yl)-6-fluoropyrazolo[1,5-a]pyrimidine-3-carboxamide], for which the Ki under setting [1] lay in the range of 10 to 1000 nM.

For the compound `N#CCc1cnc2c(C(=O)Nc3cnccc3OCC3CC3)c(N)nn2c1` [I-O-32, 2-amino-6-(cyanomethyl)-N-(4-(cyclopropylmethoxy)pyridin-3-yl)pyrazolo[1,5-a]pyrimidine-3-carboxamide], the Ki under setting [1] is under 10 nM.

`Nc1nn2cc(Cl)cnc2c1C(=O)Nc1cnccc1N1CCC(N)CC1` [I-N-86, 2-amino-N-(4-(4-aminopiperidin-1-yl)pyridin-3-yl)-6-chloropyrazolo[1,5-a]pyrimidine-3-carboxamide]: under setting [1], the Ki lay in the range of 10 to 1000 nM.

Consider `Nc1nn2cc(F)cnc2c1C(=O)Nc1cncc(F)c1N1CCN2CCOC[C@H]2C1` [I-N-135, (R)-2-amino-6-fluoro-N-(5-fluoro-4-(hexahydropyrazino[2,1-c][1,4]oxazin-8(1H)-yl)pyridin-3-yl)pyrazolo[1,5-a]pyrimidine-3-carboxamide], for which the Ki under setting [1] is 10 to 1000 nM.

On to `CN(C)C1CN(C(=O)C2CCN(c3c(F)cncc3NC(=O)c3c(N)nn4cc(F)cnc34)CC2)C1` [I-G-22, 2-amino-N-(4-(4-(3-(dimethylamino)azetidine-1-carbonyl)piperidin-1-yl)-5-fluoropyridin-3-yl)-6-fluoropyrazolo[1,5-a]pyrimidine-3-carboxamide], for which, under setting [1], the Ki fell in the range of 10 to 1000 nM.

Consider `Nc1nn2cc(Cl)cnc2c1C(=O)Nc1cnccc1OCCN1CCOCC1` [I-O-60, 2-amino-6-chloro-N-(4-(2-morpholinoethoxy)pyridin-3-yl)pyrazolo[1,5-a]pyrimidine-3-carboxamide], for which, under setting [1], the Ki fell in the range of 10 to 1000 nM.

For the compound `CN1CCN(C(=O)N2CCC(c3ccncc3NC(=O)c3c(N)nn4cc(F)cnc34)CC2)CC1` [I-C-17, 2-amino-6-fluoro-N-(4-(1-(4-methylpiperazine-1-carbonyl)piperidin-4-yl)pyridin-3-yl)pyrazolo[1,5-a]pyrimidine-3-carboxamide], the Ki under setting [1] was in the range of 10 to 1000 nM.

Regarding `Nc1nn2cc(F)cnc2c1C(=O)Nc1cncc(F)c1N1CCC(C(=O)N2CCC(N3CCCCC3)C2)CC1` (stereo not drawn) [I-G-64, 2-amino-6-fluoro-N-(5-fluoro-4-(4-(3-(piperidin-1-yl)pyrrolidine-1-carbonyl)piperidin-1-yl)pyridin-3-yl)pyrazolo[1,5-a]pyrimidine-3-carboxamide], the Ki under setting [1] lay within 10 to 1000 nM.

On to `CN1CCN(c2ccncc2NC(=O)c2c(N)nn3cc(F)cnc23)CC1=O` [I-N-209, 2-amino-6-fluoro-N-(4-(4-methyl-3-oxopiperazin-1-yl)pyridin-3-yl)pyrazolo[1,5-a]pyrimidine-3-carboxamide], for which, under setting [1], the Ki was in the range of 10 to 1000 nM.

As to `N#CCc1cnc2c(C(=O)Nc3cnccc3N3CCOC(CN)C3)c(N)nn2c1` (stereo not drawn) [I-N-90, 2-amino-N-(4-(2-(aminomethyl)morpholino)pyridin-3-yl)-6-(cyanomethyl)pyrazolo[1,5-a]pyrimidine-3-carboxamide], the Ki under setting [1] is 10 to 1000 nM.

On to `Cc1cncnc1-c1ccncc1NC(=O)c1c(N)nn2cc(F)cnc12` [I-C-67, 2-amino-6-fluoro-N-(4-(5-methylpyrimidin-4-yl)pyridin-3-yl)pyrazolo[1,5-a]pyrimidine-3-carboxamide], for which the Ki under setting [1] fell in the range of 10 to 1000 nM.

Take `Cc1cncc(NC(=O)c2c(N)nn3cc(Cl)cnc23)c1N1CCN(C)CC1` [I-N-57, 2-amino-6-chloro-N-(5-methyl-4-(4-methylpiperazin-1-yl)pyridin-3-yl)pyrazolo[1,5-a]pyrimidine-3-carboxamide]: the Ki under setting [1] fell in the range of 10 to 1000 nM.

For `Cn1ccc2cncc(NC(=O)c3c(N)nn4cc(F)cnc34)c21` [I-N-259, 2-amino-6-fluoro-N-(1-methyl-1H-pyrrolo[3,2-c]pyridin-7-yl)pyrazolo[1,5-a]pyrimidine-3-carboxamide], the Ki lay in the range of 1000 to 5000 nM.

`Nc1nn2cc(Cl)cnc2c1C(=O)Nc1cnccc1N1CCC(N2CC[C@@H](F)C2)CC1` [I-N-98, (R)-2-amino-6-chloro-N-(4-(4-(3-fluoropyrrolidin-1-yl)piperidin-1-yl)pyridin-3-yl)pyrazolo[1,5-a]pyrimidine-3-carboxamide]: under setting [1], the Ki was in the range of 10 to 1000 nM.

As to `Nc1nn2cc(F)cnc2c1C(=O)Nc1cnccc1N1CCC(S(=O)(=O)N2CCOCC2)CC1` [I-N-170, 2-amino-6-fluoro-N-(4-(4-(morpholinosulfonyl)piperidin-1-yl)pyridin-3-yl)pyrazolo[1,5-a]pyrimidine-3-carboxamide], the Ki under setting [1] is 10 to 1000 nM.

`N#CCc1cnc2c(C(=O)Nc3cnccc3OC3CCCC3)c(N)nn2c1` [I-O-43, 2-amino-6-(cyanomethyl)-N-(4-(cyclopentyloxy)pyridin-3-yl)pyrazolo[1,5-a]pyrimidine-3-carboxamide]: under setting [1], the Ki was under 10 nM.

On to `Nc1nn2cc(Cl)cnc2c1C(=O)Nc1cnccc1N1CCC(N2CCC3(COC3)C2)CC1` [I-N-99, N-(4-(4-(2-oxa-6-azaspiro[3.4]octan-6-yl)piperidin-1-yl)pyridin-3-yl)-2-amino-6-chloropyrazolo[1,5-a]pyrimidine-3-carboxamide], for which the Ki under setting [1] lay in the range of 10 to 1000 nM.

As to `Nc1nn2cc(Cl)cnc2c1C(=O)Nc1cnccc1OC1CNC1` [I-O-73, 2-amino-N-(4-(azetidin-3-yloxy)pyridin-3-yl)-6-chloropyrazolo[1,5-a]pyrimidine-3-carboxamide], the Ki under setting [1] lay in the range of 10 to 1000 nM.
